# According to patent US7576103B2, “Tetralin and indane derivatives and uses thereof” (Roche Palo Alto LLC, priority 2004, dated 2009):
# Experiments:
# [1] = biological target: T1, recombinant human 5-HT2A receptor (Homo sapiens, UniProt P28223); assay: Radioligand binding, [3H]Ketanserin competition, 5-HT2A; settings: membranes of CHO-K1 cells, pH 7.4, 32° C., read-out: pKi for the 5-HT2A receptor (converted)
# T1 construct: expressed in transfected cells; cell membranes
# Method: (§1) The binding activity of compounds of this invention in vitro was determined as follows. Duplicate determinations of 5-HT6 ligand affinity were made by competing for binding of [^3H]LSD in cell membranes derived from HEK293 cells stably expressing recombinant human 5-HT6 receptor. Duplicate determinations of 5-HT2A ligand affinity were made by competing for binding of [^3H]Ketanserin (3-(2-(4-(4-fluorobenzoyl)piperidinol)ethyl)-2,4(1H,3H)-quinazolinedione) in cell membranes derived from CHO-K1 cells stably expressing recombinant human 5-HT2A receptor. Membranes were prepared from HEK 293 cell lines by the method described by Monsma et al., Molecular Pharmacology, Vol. 43 pp. 320-327 (1993), and from CHO-K1 cell lines as described by Bonhaus et al., Br J Pharmacol. June 115(4):622-8 (1995).
# (§2) For estimation of affinity at the 5-HT6 receptor, all determinations were made in assay buffer containing 50 mM Tris-HCl, 10 mM MgSO4, 0.5 mM EDTA, 1 mM ascorbic acid, pH 7.4 at 37° C., in a 250 microliter reaction volume. […]
# (§3) Assay tubes containing [^3H] […] LSD or [^3H]Ketanserin were determined as radioactive counts per minute using Packard TopCount.
# (§4) Displacement of [^3H]LSD or [^3H]Ketanserin from the binding sites was quantified by fitting concentration-binding data to a 4-parameter logistic equation: […]
# [2] = biological target: T2, recombinant human 5-HT6 receptor (Homo sapiens, UniProt P50406); assay: Radioligand binding, [3H]LSD competition, 5-HT6; settings: membranes of HEK293 cells, pH 7.4, 37° C., read-out: pKi for the 5-HT6 receptor (converted)
# T2 construct: expressed in transfected cells; cell membranes
# Method: as §1, §2, §3, §4
# T2 sequence (P50406 whole entry): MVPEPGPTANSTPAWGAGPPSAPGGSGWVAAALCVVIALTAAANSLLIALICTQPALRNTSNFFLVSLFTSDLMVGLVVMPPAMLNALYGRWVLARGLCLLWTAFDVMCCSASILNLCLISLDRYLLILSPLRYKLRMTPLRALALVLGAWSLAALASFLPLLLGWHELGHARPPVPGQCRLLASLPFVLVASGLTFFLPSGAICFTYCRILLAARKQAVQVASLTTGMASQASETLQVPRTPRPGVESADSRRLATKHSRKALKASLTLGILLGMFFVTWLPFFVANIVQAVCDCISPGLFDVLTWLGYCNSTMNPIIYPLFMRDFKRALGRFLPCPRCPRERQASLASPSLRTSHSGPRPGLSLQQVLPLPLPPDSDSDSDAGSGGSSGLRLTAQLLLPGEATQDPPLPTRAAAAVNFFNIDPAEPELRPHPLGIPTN
# T1 sequence (P28223 whole entry): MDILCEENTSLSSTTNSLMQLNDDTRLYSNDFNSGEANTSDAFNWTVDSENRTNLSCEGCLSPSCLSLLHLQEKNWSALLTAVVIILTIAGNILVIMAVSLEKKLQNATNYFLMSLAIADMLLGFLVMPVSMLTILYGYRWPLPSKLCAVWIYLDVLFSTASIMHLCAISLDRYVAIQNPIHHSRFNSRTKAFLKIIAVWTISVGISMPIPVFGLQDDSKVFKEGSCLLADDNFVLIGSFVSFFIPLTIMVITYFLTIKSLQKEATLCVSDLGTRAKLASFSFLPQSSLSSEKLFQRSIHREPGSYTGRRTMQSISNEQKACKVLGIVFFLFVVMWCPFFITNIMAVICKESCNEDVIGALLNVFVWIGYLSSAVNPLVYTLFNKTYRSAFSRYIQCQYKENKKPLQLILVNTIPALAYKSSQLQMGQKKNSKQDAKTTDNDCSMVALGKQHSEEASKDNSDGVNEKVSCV
smiles,measurement,setting,value
"CNCCOC1CCCc2cc(S(=O)(=O)c3ccccc3)ccc21 (centres unmarked) [Compound 5, [2-(6-Benzenesulfonyl-1,2,3,4-tetrahydro-naphthalen-1-yloxy)-ethyl]-methyl-amine]",Ki,[1],61.7 nM
same,Ki,[2],1.82 nM
